Earlier results, collected in patent publication US20040142353A1, “Compositions and methods for identifying plants having increased tolerance to imidazolinone herbicides” (priority 2002, published 2004).
Like-named read-outs stand apart in the source and are kept apart here.

What was measured:
[1] = system: B. napus mutants P1 and P2; details: B. napus (cv 'Topas') mutants P1 and P2
[2] = system: B. napus P1, P2, and P1×P2 hybrid; details: field trials

Molecule	tolerance of mutant AHAS enzyme relative to wild type enzyme (AHAS enzyme; AHAS enzyme of homozygous P1 mutant vs wild type enzyme)	tolerance of mutant AHAS enzyme relative to wild type enzyme (AHAS enzyme; AHAS enzyme of homozygous P2 mutant vs wild type enzyme) [times]	level of herbicide tolerated by mutant plants [1]	application rate withstood with no loss of yield [2]
CCc1cnc(C2=NC(C)(C(C)C)C(=O)N2)c(C(=O)O)c1 (centres unmarked) [PURSUIT®, 2-[4,5-dihydro-4-methyl-4-(1-methylethyl)-5-oxo-1H-imidazol-2-yl]-5-ethyl-3-pyridinecarboxylic acid]	only slightly more tolerant	500	approaching ten times the field-recommended rates	–
methyl esters of 2-[4,5-dihydro-4-methyl-4-(1-methylethyl)-5-oxo-1H-imidazol-2-yl]-4-methylbenzoic acid and 2-[4,5-dihydro-4-methyl-4-(1-methylethyl)-5-oxo-1H-imidazol-2-yl]-5-methylbenzoic acid [ASSERT®]	–	–	approaching ten times the field-recommended rates	up to 800 g/ha
